Reference: patent publication US20230136299A1, “TREATMENT OF LIVER FAILURE” (HEPYX LIMITED, priority 2020, published 2023)
“And” between values parts separate entries of the source, which are not always exact repeats. Identical values can stand only once. “Also recorded” adds a separate entry of the source.

What was measured:
[1] = tested on: C57B/6 mice with CCL4 + GalN induced ACLF; assay: CCL4 + galactosamine (GalN) non-inflammatory ACLF mouse model; conditions: for RIPK3 expression (necroptotic cell death) / liver cell death (TUNEL): value (range)
Method: C57B/6 mice were gavaged for 6-weeks with carbon tetrachloride (CC14) 0.5 ml/ml to induce chronic liver injury (n=8 per group). Thereafter, galactosamine (GalN) (1000 mg/kg) was administered to induce a non-inflammatory liver injury and treatment with the RIPK1 inhibitor, RIPA56 3 mg/kg i.p. was initiated every 12-hrs.

[2] = tested on: rat ACLF model (BDL + LPS); assay: BDL + LPS rat ACLF model; conditions: LPS after BDL, TAK-242 10 mg/kg i.p. before and after LPS
[3] = tested on: C57B/6 mice with CCL4 + LPS induced ACLF; assay: CCL4 + LPS ACLF mouse model; format: in vivo; conditions: for proliferating (Cyclin A positive) hepatocytes: 5 days treatment; for CyclinA2/TUNEL ratio: CCl4-LPS 24-hr treatment model
Method: Thereafter injection of LPS (Klebsiella, 4 mg/kg, i.p.) served as a second hit to induce organ injury. […] CCL4- Carbontetrachloride; G-CSF - granulocyte colony stimulating factor.
Thereafter injection of LPS (Klebsiella, 4 mg/kg, i.p.) served as a second hit to induce organ injury.
Thereafter injection of LPS (Klebsiella, 4 mg/kg, i.p.) served as a second hit to induce organ injury. […] It majorly regulated the transition from G2 to M phase. […] E) BCL2 is the effector molecule of the STAT3 pathway which carries anti-apoptotic and antibacterial properties. […] Image J was used for image quantification and group comparison was performed by one-way ANOVA and post-hoc Tukey’s multiple comparison mRNA data is delineated as ddCt value. Western blots were performed with protein lysates pooled from all animals per group. G) Liver protein expression of markers of inflammation, cell death and regeneration/senescence (CC14-LPS 24 h treatment model). Liver lysates from 4 randomly selected animals per group were pooled and applied onto one profiler membrane.
Second, due to the conflicting data concerning the therapeutic benefit of G-CSF the present inventors performed pre-clinical studies in well-established rodent models of ACLF in order to clarify the effect of stem cell mobilisation. C57BL/6 Mice were gavaged with carbon tetrachloride (CCL4) for 6 weeks to induce liver fibrosis and subsequently injected with lipopolysaccharide (LPS) to induce tissue injury and organ failure. One hour after LPS injection mice were treated with G-CSF subcutaneously 250 µg/kg once daily for 5 consecutive days (FIG. 1A).
The inventors then tested whether TLR4 inhibition (e.g. TAK-242) rescues from G-CSF driven injury and inflammation in preclinical models of ACLF.

[4] = tested on: THP1 monocytes; assay: THP1 response to LPS after G-CSF stimulation, monocytes; format: cell-based; conditions: for IL-6 mRNA expression / IL-1b expression: LPS 10 ng/mL ± G-CSF 100 ng/mL, TAK-242 200 nM, compared to unstimulated cells; for IL-6 mRNA expression: 3-hr after LPS
Method: (§1) Densitometry was measured by using ImageJ and values are depicted as mean pixel density. After sample pooling no statistical comparison could be applied. H) Liver aSMA expression (CC14-LPS 24 hours treatment model) Liver sections were stained for aSMA (n=4 per group) as a marker of stellate cell activation. LPS increased the aSMA positive area from 1.4% ± 0.6 in CC14 animals to 8.6% ± 1.9 (p<0.001) and 9% ± 4.1 (p<0.001) when combined with G-CSF. […] Image J was used for image quantification and group comparison was performed by one-way ANOVA and post-hoc Tukey’s multiple comparison. I) THP1 response to LPS after G-CSF stimulation. THP1 were PMA activated into a macrophage like phenotype and stimulated with LPS (10 ng/mL) ± G-CSF (100 ng/mL) (2 batches in 2 replicates). Treatment was performed with TAK-242 200 nM in two of the groups. RNA extraction to measure cytokine response was performed 3-hr after LPS incubation. LPS induced an upregulation of IL-6 mRNA expression 60.2-fold in THP1 monocytes and 6.2-fold in macrophages which was enhanced by pre-incubation with G-CSF (monocytes 71-fold, macrophages 6.7-fold). TAK-242 reduced IL-6 mRNA expression compared to unstimulated cells to 5.1-fold in monocytes and 2.8-fold in macrophages resembling biological significance. […] G-CSF exaggerated the IL-1b expression 2.5-fold compared to unstimulated cells whereas it remained unchanged in macrophages (1.1-fold compared to unstimulated cells). TAK-242 decreased the IL-1b response in both cell lines (monocytes 1.3-fold and macrophages 0.7-fold compared to unstimulated cells). J) Proliferative effect of G-CSF after CC14. […] G-CSF (250 µg/kg, s.c.) was injected without previous LPS administration once daily for 5-days. Results were compared to groups administered LPS. […] Ki67 expression as a marker of hepatocyte division increased from 0.6% ± 0.2 after CC14 + LPS + G-CSF to 4.1% ± 2.9 (p<0.001) after CC14 + G-CSF. Image J was used for image quantification and group comparison was performed by one-way ANOVA and post-hoc Tukey’s multiple comparison.
(§2) Monocytes and macrophages are major source of cytokine release in liver disease. The inventors therefore tested in vitro, to what extent LPS and G-CSF modulate the cytokine response in PMA activated and native THP1 cells. […] These in vitro findings are in keeping with hepatic IL6 levels, which increased 2.8-fold in G-CSF-treated animals (FIG. 4D). […] The data help to explain the reduction in markers of organ injury in the ACLF animals treated with G-CSF/TAK-242.

[5] = tested on: PMA-activated THP1 macrophage-like cells; assay: THP1 response to LPS after G-CSF stimulation, PMA activated macrophages; format: cell-based; conditions: for IL-6 mRNA expression / IL-1b expression: LPS 10 ng/mL ± G-CSF 100 ng/mL, TAK-242 200 nM, compared to unstimulated cells; for IL-6 mRNA expression: 3-hr after LPS
Method: as §1, §2

[6] = tested on: patients with ACLF; conditions: from 30% without G-CSF; cited from earlier work
[7] = tested on: patients with ACLF; assay: GRAFT multicentre randomised controlled trial of G-CSF in ACLF (NCT02669680); format: in vivo, human
Text: The pathobiology of ACLF is characterised by immunopathological features comprising two opposing mechanisms as the main drivers of organ failure which are active concurrently. The first is systemic and hepatic inflammation triggered by pathogen-associated molecular patterns (PAMPs) and cell death molecules (damage associated molecular patterns (DAMPs)) mediated through the TLR4 receptor pathway. PAMPs derive through translocation of gut-derived bacteria and bacterial products (such as lipopolysaccharide-LPS) to the liver via portal the portal vein, promoting pro-inflammatory responses through the toll-like 4 (TLR4) -dependent canonical inflammasome on immune cells, as well as the TLR4-independent non-canonical inflammasome in hepatocytes (3). […] The second is a prolonged organ injury, immune cell paralysis and failure of regeneration facilitating prolonged organ dysfunction and secondary infections culminating into a vicious cycle leading to multi-organ failure and death. Stem cells and other regulatory immune cells are known to modulate immune activation thereby modulating inflammatory reactions and supporting tissue repair capacities (5). Granulocyte colony stimulating factor (G-CSF) mobilizes stem and immune cells and is perceived to carry immunomodulatory and pro-regenerative properties. […]

[8] = tested on: C57B/6 mice with CCL4 induced chronic liver injury; assay: G-CSF after CCL4 without LPS (chronic liver injury mice); format: in vivo; conditions: CCl4 + G-CSF 250 µg/kg s.c. once daily for 5-days, no LPS
Method: Densitometry was measured by using ImageJ and values are depicted as mean pixel density. After sample pooling no statistical comparison could be applied. H) Liver aSMA expression (CC14-LPS 24 hours treatment model) Liver sections were stained for aSMA (n=4 per group) as a marker of stellate cell activation. LPS increased the aSMA positive area from 1.4% ± 0.6 in CC14 animals to 8.6% ± 1.9 (p<0.001) and 9% ± 4.1 (p<0.001) when combined with G-CSF. […] Image J was used for image quantification and group comparison was performed by one-way ANOVA and post-hoc Tukey’s multiple comparison. I) THP1 response to LPS after G-CSF stimulation. THP1 were PMA activated into a macrophage like phenotype and stimulated with LPS (10 ng/mL) ± G-CSF (100 ng/mL) (2 batches in 2 replicates). Treatment was performed with TAK-242 200 nM in two of the groups. RNA extraction to measure cytokine response was performed 3-hr after LPS incubation. LPS induced an upregulation of IL-6 mRNA expression 60.2-fold in THP1 monocytes and 6.2-fold in macrophages which was enhanced by pre-incubation with G-CSF (monocytes 71-fold, macrophages 6.7-fold). […] Image J was used for image quantification and group comparison was performed by one-way ANOVA and post-hoc Tukey’s multiple comparison.

[9] = RIPA56 3 mg/kg i.p. every 12-hrs, n=3
[10] = RIPA56 3 mg/kg i.p. every 12-hrs, p<0.001 compared to CCl4 + GalN, 3 mg/kg
[11] = LPS +/- G-CSF, TAK-242 10 mg/kg i.p. twice for 24 h, 10 mg/kg

CCC(C)(C)C(=O)N(O)Cc1ccccc1 [RIPA56]
Cyclin A2 (hepatocyte proliferation) [1, 9]: 0.03% ± 0.1 | Ki67 (hepatocyte proliferation) [1, 9]: 0.2% ± 0.2 | GalN-induced cell death (TUNEL) [1, 10]: effectively prevented; also recorded: reduced | RIPK3 expression [1, 10]: effectively prevented; also recorded: reduced

CCOC(=O)C1=CCCC[C@H]1S(=O)(=O)Nc1ccc(F)cc1Cl [TAK-242, Ethyl (6R)-6-[N-(2-chloro-4-fluorophenyl)sulfamoyl]cyclohex-1-ene-1-carboxylate]
Cyclin A2 (proliferating hepatocytes) ([1]; 48 hours treatment): 1.9% ± 1.6 | Ki67 (proliferating hepatocytes) ([1]; 48 hours treatment): 3% ± 2.1 | p21 (hepatocytes in cell cycle arrest) ([1]; 48 hours treatment): 7.1% ± 4.5 | RIPK3 expression (necroptotic cell death) ([1]; 48 hours treatment): 1.7% (range 0.9-2.1) | liver cell death (TUNEL) ([1]; 48 hours treatment): 1.4% (range 0.4-3.3) | CyclinA2/TUNEL ratio ([1]; GalN 48-hr treatment): 0.9 | degree of proliferating (Cyclin A2, Ki67) and senescent (p21) hepatocytes ([1]; mouse, in vivo): did not alter; also recorded: maintained | ALT levels ([2]; 10 mg/kg): improving plasma ALT levels; also recorded: significantly reduced | liver cell death (TUNEL) ([2]; recAP pre-treatment 1000 U/kg i.p. over 4 days): effective in reducing cell death in the liver; also recorded: significantly reduced | proliferating (Cyclin A positive) hepatocytes [3]: not proliferating | proliferating (Cyclin A positive) hepatocytes ([3]; listed as TAK242): did not enhance | CyclinA2/TUNEL ratio [3]: 1.4 | ALT levels [3, 11]: reduction in plasma ALT levels; also recorded: prevented | liver cell death (TUNEL) [3, 11]: reduction in liver cell death; also recorded: prevented | CDKN2A (p16) mRNA level ([3]; after LPS injection): decreased in a stepwise manner | stellate cells activation (aSMA expression) ([3]; after LPS injection): significantly abrogated | G-CSF-related death ([3]; mouse, in vivo): protected from G-CSF-related death | hepatic cytokine expression (mRNA) (IL6, TNFa) ([3]; mouse, in vivo): reduced | liver protein expression of vascular regeneration and regeneration markers (angiopoietin 2, proliferin, PDGF, IL-22, Flt3-ligand, IGFBP-1) ([3]; proteome profiler, pooled liver lysates, 24-hours): reduced | IL-6 mRNA expression [4]: 5.1 fold | IL-1b expression [4]: 1.3 fold | cytokine response to LPS alone or in combination with G-CSF ([4]; in the presence of TAK-242): completely prevented | IL-6 mRNA expression [5]: 2.8 fold | IL-1b expression [5]: 0.7 fold | cytokine response to LPS alone or in combination with G-CSF ([5]; in the presence of TAK-242): completely prevented

B1: G-CSF: Granulocyte colony stimulating factor, a glycoprotein that mobilizes stem and immune cells; recombinant murine G-CSF used in mice (protein, UniProt P09920 31-208, looked up)
Granulocyte …: VPLVTVSALPPSLPLPRSFLLKSLEQVRKIQASGSVLLEQLCATYKLCHPEELVLLGHSLGIPKASLSGCSSQALQQTQCLSQLHSGLCLYQGLLQALSGISPALAPTLDLLQLDVANFATTIWQQMENLGVAPTVQPTQSAMPAFTSAFQRRAGGVLAISYLQGFLETARLALHHLA
survival after 60 days [6]: 70% | RIPK3 expression (necroptotic cell death) ([1]; 48 hours treatment): 1.9% (range 0.9-2.5) | liver cell death (TUNEL) ([1]; 48 hours treatment): 1.2% (range 0.4-1.9) | cell death and subsequent regenerative response ([1]; mouse, in vivo): reduced cell death and the subsequent regenerative response | degree of proliferating (Cyclin A2, Ki67) and senescent (p21) hepatocytes ([1]; mouse, in vivo): reduced | liver fibrosis (Sirius Red) ([3]; 5-days G-CSF treatment): higher degree of liver fibrosis; also recorded: enhanced liver fibrosis; also recorded: pro-fibrotic effect | hepatic macrophage infiltration (F4/80+) ([3]; 5 days G-CSF treatment): persisted; also recorded: aggravated liver macrophage infiltration; also recorded: maintained macrophage infiltration | proliferating (Cyclin A positive) hepatocytes [3]: increased the number of proliferating hepatocytes significantly | Cyclin A2 expressing hepatocytes ([3]; CCl4 + LPS + G-CSF, 5 days): 1.4% ± 0.7 | Ki67 expression (hepatocyte division) ([3]; CCl4 + LPS + G-CSF, 5 days): 0.6% ± 0.2 | CyclinA2/TUNEL ratio [3]: 0.04 | mortality ([3]; G-CSF 250 µg/kg s.c. once daily, within 48 hours after LPS injection): 50% and 66% | hepatic IL6 levels, increase ([3]; G-CSF-treated animals (FIG. 4D)): 2.8 fold | survival ([3]; after 48 hours, G-CSF 250 µg/kg s.c. +/- TAK-242 10 mg/kg i.p.): 50% | number of senescent hepatocytes ([3]; after 5 days of treatment): plummet significantly | TLR4+ liver infiltrating CD45+ cells ([3]; after G-CSF treatment (FIG. 2C)): increased | CDKN2A (p16) mRNA level ([3]; after LPS injection): decreased in a stepwise manner | aSMA positive area (stellate cell activation) ([3]; liver sections, CCl4-LPS 24 hours treatment model, n=4 per group): 9% ± 4.1 | hepatic cytokine expression (mRNA) (IL6, TNFa) ([3]; mouse, in vivo): increased | number of p53 positive (senescent) hepatocytes ([3]; mouse, in vivo): reduced numerically | injury markers (such as Lipocalin/NGAL and IL-13), protein profiler ([3]; pooled liver lysates, 24 h treatment model): increased | IL-6 mRNA expression [4]: 71 fold | IL-1b expression [4]: 2.5 fold | survival rate / mortality of patients with ACLF ([7]; 163 patients, G-CSF vs standard of care, interim analysis): did not improve the survival rate; also recorded: no effect on mortality | mortality in subgroups (alcoholic hepatitis, ACLF according to the APASL criteria) ([7]; in vivo): tend to increased mortality; also recorded: may be deleterious | IL-6 mRNA expression [5]: 6.7 fold | IL-1b expression [5]: 1.1 fold | Cyclin A2 expressing hepatocytes [8]: 2.1% ± 1.3 | Ki67 expression (hepatocyte division) [8]: 4.1% ± 2.9
